In patent US10434092B2, “Dosage regimen for an alpha-isoform selective phosphatidylinositol 3-kinase inhibitor” (Novartis AG, priority 2013, dated 2019):
Where “and” joins values, the source holds several entries; their conditions need not be identical. Equal entries are not always repeated.

Assays:
S473P-Akt [1] = experiment: In vivo S473P-Akt inhibition in Rat1-myr-p110α tumors (RPPA) versus tumor drug concentration; parameters: species or system nude mice and rats
Experimental: (§1) Rat1-Myr-p110α tumors were established by subcutaneous injection of […] in 100 μL HBSS (Sigma #H8264) into the right flank of nude mice or nude rats. For the efficacy experiments, treatments were initiated when the mean tumor volumes were approx. 300 mm^3 (14 to 15 days post tumor cells injection).
(§2) Blood samples were collected at different time points post the last treatment (1 hour, 2 hour, 4 hour, 8 hour, 12 hour, 16 hour and 24 hour, n=2-3 per time point) into tubes coated with K-EDTA. Blood samples were centrifuged and collected plasma immediately frozen at −80° C. until final processing. Tumors were collected at sacrifice at 7 time points (1 hour, 2 hour, 4 hour, 8 hour, 12 hour, 16 hour and 24 hour, n=2-3 per time point), snap frozen and kept at −80° C. until final processing.
After dissection, the tumors were snap-frozen in liquid nitrogen and stored at −80° C. Frozen tumors were pulverized using a Retsch ball mixer mill MM20 (Arlesheim, Switzerland) with metal cylinders that were pre-cooled to −80° C. in a freezer. Powder was scrapped from metal cylinders on dry ice and transferred into pre-cooled 1.5 mL Eppendorf tubes while avoiding melting.
(§3) Following addition of 25 μL of internal standard (1 μg/mL) to analytical aliquots (25 μL) of plasma or (20 mg) tumor powder, the proteins were precipitated by the addition of 200 μL acetonitrile. The supernatant were transferred in a fresh vial. After evaporation to dryness the samples were re-dissolved in 60 μL acetonitrile/water (1/1 v/v). An aliquot (5 μL) of this solution was separated on a ACQUITY UPLC BEH C18 column (Waters™ 1.7 μm particle size, 2.1×50 mm) with a mobile phase consisting of a mixture of 0.1% formic acid in water (solvent A) and 0.1% formic acid in acetonitrile (solvent B). Gradient programming was used with a flow rate of 600 μL/min. After equilibration with 95% solvent A, 5 μL of sample was injected. Following a latency period of 0.25 min, the sample was eluted with a linear gradient of 5-100% solvent B over a period of 0.65 minutes followed by a 0.35 minutes hold. The column was prepared for the next sample by re-equilibrating over 0.25 minutes to the starting conditions. […]
Each sample was vortexed and centrifuged for 10 minutes at 10,000 rpm. […] The protein concentrations were quantified using the Coomassie Plus Kit (#23236 Thermo Scientific, Rockford, Ill., USA) according to the protocol of the manufacturer. The diluted samples were transferred into a 96 well plate (#269620, NUNC) and the absorbance was measured at 595 nm using a SpectraMAX Plus plate reader from Molecular Devices. The Protein amount was calculated using the Softmax Pro 5.0 software (Molecular Devices, USA) and then normalized on 1 mg/mL using the corresponding lysis buffer. […]

Plasma protein binding = format: in vitro ADME; conditions: mouse, read-out: plasma protein binding (PPB) (converted)
S473P-Akt [2] = experiment: In vitro cellular S473P-Akt inhibition; format: cell-based
Rat1-myr-p110α tumor [3] = experiment: Antitumor activity in the Rat1-myr-p110α tumor model, nude mice; format: in vivo; conditions: oral
Experimental: (§4) Experiments were performed in female Hsd: Athymic Nude-nu CPB mice (Harlan Winkelmann, Germany). Animals were between 12 and 14 weeks of age at treatment start and housed under Optimized Hygienic Conditions (OHC) in Makrolon type III cages (max. 5 animals per cage) with free access to food and water. In addition, experiments were also performed in female nude Rowett rats Hsd: RH-Fox1mu (Harlan (The Netherlands). Animals were 6-9 weeks of age at time of application of the compound. Animals were housed under Optimized Hygienic Conditions in Makrolon type III cages (max. 2 animals per cage) with free access to food and water. They were allowed to adapt for at least 6 days before the experiment was started.
(§5) Rat1-Myr-p110α cells were grown in Dulbecco's Modified Eagle Medium (DMEM) culture medium containing 4.5 g/l glucose supplemented with 10% heat-inactivated fetal calf serum (FCS), 2 mM L-glutamine, 1 mM sodium pyruvate and incubated at 37° C. in a 5% CO2 humidified atmosphere. Cells were harvested with trypsin-EDTA, re-suspended in culture medium (with additives) and counted with a Casy® system. Finally, cells are centrifuged, suspended in ice-cold Hanks' balanced salt solution (HBSS) at a concentration of 3×10^7 cells/ml. Cell culture reagents were purchased from BioConcept (Allschwil, Switzerland).
as §1
(§6) Fresh suspensions were prepared once every 4 days and stored at 4° C.
(§7) Tumor volumes were measured with calipers and determined according to the formula: length×diameter^2×[…]/6. In addition to presenting changes of tumor volumes over the course of treatments, antitumor activity is expressed as T/C % (mean change of tumor volume of treated animals/mean change of tumor volume of control animals)×100. Regressions (%) were calculated according to the formula ((mean tumor volume at end of treatment−mean tumor volume at start of treatment)/mean tumor volume at start of treatment)×100. Body weights and tumor volumes were recorded two to three times a week.

Rat1-myr-p110α tumor [4] = experiment: Antitumor activity in the Rat1-myr-p110α tumor model, nude rats; format: in vivo; conditions: nude rat, oral
Experimental: as §4, §5, §1, §6, §7

Rat1-myr P110a tumors = experiment: PK/PD/efficacy relationship (time over in vivo IC80 versus anti-tumor efficacy); parameters: species or system mice and rats
Excerpt: Phoenix WinNonlin 6.3 (Pharsight) was used to simulate the mean plasma concentration time profiles after multiple dosing using the non-compartmental nonparametric superposition approach of data generated either from a mouse or rat efficacy study. The predictions are based upon an accumulation ratio computed from the terminal slope (Lambda Z), allowing predictions from simple or complicated dosing schedules.
FIG. 6 provides the relationship between exposure (as measured by time over the in vivo IC80) and anti-tumor efficacy. Further, a nearly linear relationship is identified between the anti-tumor efficacy magnitude and duration of drug exposure (as measured by time over the in vivo IC80) over the IC80 (R^2=0.89; FIG. 7).

[5] = Modulation of glucose and insulin levels, nude mice; format: in vivo; conditions: versus plasma drug concentration
[6] = Modulation of glucose and insulin levels, nude rats; format: in vivo; conditions: versus plasma drug concentration
[7] = PK/PD/tolerability relationship (time above hyperglycemia threshold versus body weight loss); format: in vivo, nude mice and rats; conditions: mice and rats, threshold 20 μmol/L mice
Excerpt: From this relationship, it is understood that the compound exposure levels should be sustained for no more than 35% of the dosing interval above the hyperglycemia cut-off to maintain body weight loss below 5% in mice and rats.

Human plasma exposure = format: in vivo; conditions: po, human dose 300-350 mg/day p.o.
Experimental: The corresponding total dose for qd in continuous daily schedule p.o. dose would be 14 mg/kg.

[8] = Pharmacokinetics after oral administration, nude mice; format: in vivo; conditions: nude mice, 12.5, 25 and 50 mg/kg qd
Experimental: as §2
as §3, with “hold.” for “hold. The column was prepared for the next sample by re-equilibrating over 0.25 minutes to the starting conditions.”

[9] = Pharmacokinetics after oral administration, nude rats; format: in vivo; conditions: nude rats, 12.5, 25, 40 and 80 mg/kg qd
Experimental: as §2
as §3, with “hold.” for “hold. The column was prepared for the next sample by re-equilibrating over 0.25 minutes to the starting conditions.”

[10] = test system: advanced solid malignancies carrying an alteration in the PIK3CA gene; conditions: patients treated at ≥270 mg/day, oral, continuous daily schedule; breast, colorectal, endometrial, cervical cancer (1 patient each); as of Feb. 15, 2013; cited from earlier work
[11] = once or twice per day continuous daily schedule, oral; cited from earlier work
Vps34 = Vps34 (Homo sapiens, UniProt Q8NEB9); conditions: cited from earlier work
mTOR = mTOR (Homo sapiens, UniProt P42345); conditions: cited from earlier work
DNA-PK = DNA-PK (Homo sapiens, UniProt P78527); conditions: cited from earlier work
ATR = ATR (Homo sapiens, UniProt Q13535); conditions: cited from earlier work
Sequence of ATR (Q13535 whole entry): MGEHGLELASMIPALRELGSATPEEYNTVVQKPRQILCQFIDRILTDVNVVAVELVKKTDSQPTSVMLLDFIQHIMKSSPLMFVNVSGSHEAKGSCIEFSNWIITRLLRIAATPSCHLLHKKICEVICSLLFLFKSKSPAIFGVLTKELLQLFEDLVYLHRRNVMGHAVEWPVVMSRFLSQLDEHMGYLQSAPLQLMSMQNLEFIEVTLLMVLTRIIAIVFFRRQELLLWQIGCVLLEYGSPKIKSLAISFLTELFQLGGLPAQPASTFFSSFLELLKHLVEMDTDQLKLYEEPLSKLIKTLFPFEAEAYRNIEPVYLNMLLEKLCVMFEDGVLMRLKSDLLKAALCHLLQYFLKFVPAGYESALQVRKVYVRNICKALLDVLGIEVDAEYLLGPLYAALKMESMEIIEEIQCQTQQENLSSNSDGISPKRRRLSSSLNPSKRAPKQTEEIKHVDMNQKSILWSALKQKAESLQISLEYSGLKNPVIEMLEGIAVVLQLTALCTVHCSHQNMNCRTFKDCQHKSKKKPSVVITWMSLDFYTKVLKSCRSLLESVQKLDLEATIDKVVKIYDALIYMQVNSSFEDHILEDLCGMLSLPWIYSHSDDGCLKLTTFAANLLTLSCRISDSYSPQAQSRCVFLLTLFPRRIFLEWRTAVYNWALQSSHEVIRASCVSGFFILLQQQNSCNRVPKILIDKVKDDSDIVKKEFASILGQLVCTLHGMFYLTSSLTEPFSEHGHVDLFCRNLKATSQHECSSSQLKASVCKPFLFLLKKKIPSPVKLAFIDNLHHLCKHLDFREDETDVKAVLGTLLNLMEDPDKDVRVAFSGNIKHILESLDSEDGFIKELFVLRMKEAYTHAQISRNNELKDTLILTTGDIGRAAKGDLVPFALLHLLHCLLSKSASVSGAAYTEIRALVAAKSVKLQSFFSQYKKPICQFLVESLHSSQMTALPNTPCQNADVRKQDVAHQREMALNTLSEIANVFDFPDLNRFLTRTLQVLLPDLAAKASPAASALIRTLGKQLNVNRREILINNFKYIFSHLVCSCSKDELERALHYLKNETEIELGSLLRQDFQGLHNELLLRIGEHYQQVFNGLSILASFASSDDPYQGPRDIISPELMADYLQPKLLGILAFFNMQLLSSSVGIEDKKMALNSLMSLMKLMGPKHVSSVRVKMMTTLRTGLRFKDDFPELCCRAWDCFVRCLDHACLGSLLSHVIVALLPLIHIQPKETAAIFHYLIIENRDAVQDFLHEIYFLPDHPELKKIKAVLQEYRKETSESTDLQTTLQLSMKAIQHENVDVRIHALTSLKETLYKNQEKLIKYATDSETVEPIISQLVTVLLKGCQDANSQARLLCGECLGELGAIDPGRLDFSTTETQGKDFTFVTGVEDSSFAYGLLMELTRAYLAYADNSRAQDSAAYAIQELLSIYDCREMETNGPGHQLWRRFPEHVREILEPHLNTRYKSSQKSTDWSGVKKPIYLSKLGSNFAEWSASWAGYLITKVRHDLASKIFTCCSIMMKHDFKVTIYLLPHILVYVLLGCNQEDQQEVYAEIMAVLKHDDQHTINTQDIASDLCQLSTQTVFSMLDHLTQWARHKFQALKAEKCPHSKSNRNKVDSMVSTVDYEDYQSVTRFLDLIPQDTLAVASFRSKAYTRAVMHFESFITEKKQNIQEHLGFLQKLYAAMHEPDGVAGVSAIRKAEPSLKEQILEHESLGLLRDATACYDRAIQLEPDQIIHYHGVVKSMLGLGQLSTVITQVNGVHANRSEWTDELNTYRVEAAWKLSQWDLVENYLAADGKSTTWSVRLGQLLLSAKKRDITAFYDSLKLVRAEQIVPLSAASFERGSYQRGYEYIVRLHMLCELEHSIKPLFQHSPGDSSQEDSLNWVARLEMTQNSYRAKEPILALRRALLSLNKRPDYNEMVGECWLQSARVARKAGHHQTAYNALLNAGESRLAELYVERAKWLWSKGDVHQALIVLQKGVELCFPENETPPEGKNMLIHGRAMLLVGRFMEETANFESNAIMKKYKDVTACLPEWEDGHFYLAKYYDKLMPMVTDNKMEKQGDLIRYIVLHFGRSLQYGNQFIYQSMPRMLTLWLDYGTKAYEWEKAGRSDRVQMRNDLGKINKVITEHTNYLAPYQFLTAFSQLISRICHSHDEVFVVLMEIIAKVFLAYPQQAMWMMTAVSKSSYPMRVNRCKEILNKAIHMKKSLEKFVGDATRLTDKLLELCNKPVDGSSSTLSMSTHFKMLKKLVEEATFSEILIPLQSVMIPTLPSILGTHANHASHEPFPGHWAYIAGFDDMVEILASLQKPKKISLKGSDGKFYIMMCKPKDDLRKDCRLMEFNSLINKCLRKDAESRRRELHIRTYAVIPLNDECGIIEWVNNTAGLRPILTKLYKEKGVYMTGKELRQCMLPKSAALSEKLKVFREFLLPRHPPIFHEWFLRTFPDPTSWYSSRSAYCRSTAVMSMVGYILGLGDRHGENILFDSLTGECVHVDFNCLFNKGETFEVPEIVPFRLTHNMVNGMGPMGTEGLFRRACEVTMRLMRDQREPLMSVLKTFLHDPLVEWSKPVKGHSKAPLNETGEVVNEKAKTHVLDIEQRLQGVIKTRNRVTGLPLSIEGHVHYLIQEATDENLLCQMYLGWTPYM
Sequence of ATR (Q8WXE1 whole entry partner): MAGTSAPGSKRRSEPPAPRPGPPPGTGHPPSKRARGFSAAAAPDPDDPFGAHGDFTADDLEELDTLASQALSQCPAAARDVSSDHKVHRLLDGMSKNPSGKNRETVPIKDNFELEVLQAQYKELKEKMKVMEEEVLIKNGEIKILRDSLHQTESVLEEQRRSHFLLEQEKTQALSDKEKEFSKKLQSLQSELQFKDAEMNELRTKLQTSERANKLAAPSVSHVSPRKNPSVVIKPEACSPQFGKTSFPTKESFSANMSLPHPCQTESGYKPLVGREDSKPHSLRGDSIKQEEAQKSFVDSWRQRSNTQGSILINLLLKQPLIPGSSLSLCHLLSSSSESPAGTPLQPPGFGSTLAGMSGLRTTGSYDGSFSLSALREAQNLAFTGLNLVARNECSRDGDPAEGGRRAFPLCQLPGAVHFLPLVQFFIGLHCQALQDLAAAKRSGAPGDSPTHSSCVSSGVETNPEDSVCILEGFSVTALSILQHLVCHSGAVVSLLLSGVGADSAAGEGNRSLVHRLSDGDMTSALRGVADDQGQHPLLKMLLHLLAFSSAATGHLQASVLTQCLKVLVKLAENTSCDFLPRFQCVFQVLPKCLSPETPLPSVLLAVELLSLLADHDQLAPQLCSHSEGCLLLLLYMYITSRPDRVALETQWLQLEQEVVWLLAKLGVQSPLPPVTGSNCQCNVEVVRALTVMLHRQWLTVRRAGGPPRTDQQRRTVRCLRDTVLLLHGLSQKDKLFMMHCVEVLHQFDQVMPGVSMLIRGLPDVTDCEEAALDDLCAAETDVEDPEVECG

Sequence of Vps34 (Q8NEB9 whole entry, species assumed): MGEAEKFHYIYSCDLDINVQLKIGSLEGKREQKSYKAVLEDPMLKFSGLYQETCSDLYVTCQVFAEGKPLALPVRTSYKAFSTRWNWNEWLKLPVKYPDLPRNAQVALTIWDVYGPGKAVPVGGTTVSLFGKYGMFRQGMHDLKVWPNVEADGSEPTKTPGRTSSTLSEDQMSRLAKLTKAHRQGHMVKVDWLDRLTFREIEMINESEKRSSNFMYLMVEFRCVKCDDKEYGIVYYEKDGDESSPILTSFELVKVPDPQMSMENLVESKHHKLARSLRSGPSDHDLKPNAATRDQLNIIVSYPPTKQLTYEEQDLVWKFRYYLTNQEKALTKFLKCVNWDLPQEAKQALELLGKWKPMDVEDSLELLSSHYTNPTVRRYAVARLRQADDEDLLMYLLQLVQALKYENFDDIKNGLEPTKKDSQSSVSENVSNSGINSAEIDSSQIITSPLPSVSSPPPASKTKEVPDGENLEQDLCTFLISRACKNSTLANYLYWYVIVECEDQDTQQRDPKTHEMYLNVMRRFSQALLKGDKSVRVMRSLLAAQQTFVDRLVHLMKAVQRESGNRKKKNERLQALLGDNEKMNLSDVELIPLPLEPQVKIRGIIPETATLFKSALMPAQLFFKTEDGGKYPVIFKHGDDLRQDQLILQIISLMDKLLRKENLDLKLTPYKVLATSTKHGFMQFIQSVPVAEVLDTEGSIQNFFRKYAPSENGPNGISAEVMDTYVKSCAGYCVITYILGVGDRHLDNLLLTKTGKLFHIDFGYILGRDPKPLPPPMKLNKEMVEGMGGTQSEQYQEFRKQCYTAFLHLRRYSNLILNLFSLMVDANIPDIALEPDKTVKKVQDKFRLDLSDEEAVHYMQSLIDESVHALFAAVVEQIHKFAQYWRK

Cc1nc(NC(=O)N2CCC[C@H]2C(N)=O)sc1-c1ccnc(C(C)(C)C(F)(F)F)c1 [Compound A, (S)-Pyrrolidine-1,2-dicarboxylic acid 2-amide 1-({4-methyl-5-[2-(2,2,2-trifluoro-1,1-dimethyl-ethyl)-pyridin-4-yl]-thiazol-2-yl}-amide)]
IC50 (S473P-Akt [1]; Mus musculus, read-out: in vivo IC50, tumor concentration giving 50% S473P-Akt inhibition): 600 nM | IC80 (S473P-Akt [1]; Mus musculus, read-out: in vivo IC80 corrected for plasma protein binding): 352 nM | IC80 (S473P-Akt [1]; Mus musculus, tumor concentration, versus controls, Rat1-myr-p110α tumors, read-out: in vivo IC80, tumor concentration giving 80% S473P-Akt inhibition): 4000 nM | IC50 (S473P-Akt [1]; corrected for mouse PPB, read-out: in vivo IC50 corrected for plasma protein binding): 53 nM | fraction unbound (Plasma protein binding): 0.088 | IC50 (S473P-Akt [2]): 74 nM | IC80 (S473P-Akt [2]): 301 nM | Efficacy T/C (observed) (Rat1-myr-p110α tumor [3]; 6.25 mg 2qd): 0.02 | Efficacy T/C (observed) (Rat1-myr-p110α tumor [3]; 6.25 mg qd): 0.19 | Efficacy Regression (observed) (Rat1-myr-p110α tumor [3]; 12.5 mg 2qd): −0.55 | Efficacy T/C (observed) (Rat1-myr-p110α tumor [3]; 12.5 mg qd): 0.09 | Efficacy Regression (observed) (Rat1-myr-p110α tumor [3]; 20 mg 2qd): −0.80 | Efficacy Regression (observed) (Rat1-myr-p110α tumor [3]; 25 mg qd): −0.53 | Efficacy Regression (observed) (Rat1-myr-p110α tumor [3]; 40 mg 2qd): −0.86 | Efficacy Regression (observed) (Rat1-myr-p110α tumor [3]; 50 mg qd): −0.65 | Efficacy T/C (observed) (Rat1-myr-p110α tumor [4]; 6.25 mg qd): 0.22 | Efficacy T/C (observed) (Rat1-myr-p110α tumor [4]; 12.5 mg qd): 0.05 | Efficacy Regression (observed) (Rat1-myr-p110α tumor [4]; 25 mg qd): −0.65 | Efficacy Regression (observed) (Rat1-myr-p110α tumor [4]; 50 mg qd): −0.80 | fraction of the dosing interval with 80% inhibition of Akt phosphorylation required to induce tumor stasis (Rat1-myr P110a tumors): at least 25 % of the dosing interval | insulin plasma levels [5]: increased proportionally | insulin plasma levels [6]: increased proportionally | fraction of the dosing interval above the hyperglycemia cut-off that maintains body weight loss below 5% [7]: no more than 35 % of the dosing interval | AUC (Human plasma exposure): 35000 ng·h/mL and 80 µM·h | Cmax (Human plasma exposure): 3500 ng/mL and 8 µM | dose linearity of pharmacokinetics [8]: linear | dose linearity of pharmacokinetics [9]: linear | clinical response [10]: confirmed partial responses | decreased appetite [11]: 34 % of patients | diarrhea [11]: 35 % of patients | hyperglycemia [11]: 49 % of patients | nausea [11]: 43 % of patients | rash and hypersensitivity [11]: 34 % of patients | inhibitory activity against Vps34 (Vps34): lacks inhibitory activity | inhibitory activity against mTOR (mTOR): lacks inhibitory activity | inhibitory activity against DNA-PK (DNA-PK): lacks inhibitory activity | inhibitory activity against ATR (ATR): lacks inhibitory activity
